Measurements from PubChem BioAssay (NCI).
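Step 1: Grow cells in 96-well plates. Step 2: Expose to compound for 48 hours at 5 concentrations. Step 3: Interpolate endpoints linearly; if unreached, use highest concentration. TGI denotes the concentration required for complete inhibition of growth.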

What was measured:
Experiment in all cases: NCI tumour cell line growth inhibition, 48 h
ACHN renal = test system: ACHN renal
PC-3 prostate = test system: PC-3 prostate
A549 NSCLC = test system: A549 NSCLC
LXFL 529 NSCLC = test system: LXFL 529 NSCLC
DMS 114 small cell lung = test system: DMS 114 small cell lung
XF 498 CNS = test system: XF 498 CNS
SN12K1 renal = test system: SN12K1 renal
M19-MEL melanoma = test system: M19-MEL melanoma
P388 leukemia = test system: P388 leukemia
P388/ADR leukemia = test system: P388/ADR leukemia

CCCOP(=O)(OCCC)OC(C(F)(F)F)C(F)(F)F
TGI (ACHN renal): > 100 µM

CN1Cc2cc(O)c(O)cc2C(O)C1 (stereo unspecified)
TGI (ACHN renal): > 100 µM | TGI (PC-3 prostate): > 100 µM | TGI (A549 NSCLC): > 100 µM

CCOc1ccc(C(C)c2cc3c(cc2OC)OCO3)cc1 (stereo unspecified)
TGI (ACHN renal): > 100 µM | TGI (LXFL 529 NSCLC): > 100 µM | TGI (DMS 114 small cell lung): 0.85 µM | TGI (A549 NSCLC): 90.8 µM | TGI (XF 498 CNS): 0.823 µM

COc1cc2c(cc1Oc1c(Oc3c(O)c(OC)cc4c3C(CC(C)C)N(C)CC4)c(OC)cc3c1C(CC(C)C)N(C)CC3)C(CC(C)C)N(C)CC2 (stereo unspecified)
TGI (SN12K1 renal): 3.79 µM | TGI (M19-MEL melanoma): 2.58 µM | TGI (P388 leukemia): 3.62 µM | TGI (DMS 114 small cell lung): 6.52 µM | TGI (A549 NSCLC): 6.39 µM | TGI (P388/ADR leukemia): 3.71 µM

COC(=O)c1cn(CC(O)CCl)nn1 (stereo unspecified)
TGI (ACHN renal): > 100 µM | TGI (PC-3 prostate): > 100 µM | TGI (A549 NSCLC): > 100 µM

COc1cc2cc(C(=O)N3CC(CCl)c4ccc(N(C)C)cc43)[nH]c2c(OC)c1OC (stereo unspecified)
TGI (PC-3 prostate): 0.979 µM

COC1=CC(=O)C=C(OC)C1=O
TGI (SN12K1 renal): 18 µM | TGI (M19-MEL melanoma): 8.19 µM | TGI (P388 leukemia): 1.25 µM | TGI (DMS 114 small cell lung): 13.5 µM | TGI (A549 NSCLC): 95.7 µM | TGI (XF 498 CNS): 6.34 µM | TGI (P388/ADR leukemia): 1.08 µM
